Measurements: ChEMBL document CHEMBL1145231, “2-Alkoxydihydrocinnamates as PPAR agonists. Activity modulation by the incorporation of phenoxy substituents” (Bioorg Med Chem Lett, 2005)

Tests used:
[1] = target: T1, Peroxisome proliferator-activated receptor delta (Homo sapiens, UniProt Q03181)
T1 sequence (Q03181 whole entry): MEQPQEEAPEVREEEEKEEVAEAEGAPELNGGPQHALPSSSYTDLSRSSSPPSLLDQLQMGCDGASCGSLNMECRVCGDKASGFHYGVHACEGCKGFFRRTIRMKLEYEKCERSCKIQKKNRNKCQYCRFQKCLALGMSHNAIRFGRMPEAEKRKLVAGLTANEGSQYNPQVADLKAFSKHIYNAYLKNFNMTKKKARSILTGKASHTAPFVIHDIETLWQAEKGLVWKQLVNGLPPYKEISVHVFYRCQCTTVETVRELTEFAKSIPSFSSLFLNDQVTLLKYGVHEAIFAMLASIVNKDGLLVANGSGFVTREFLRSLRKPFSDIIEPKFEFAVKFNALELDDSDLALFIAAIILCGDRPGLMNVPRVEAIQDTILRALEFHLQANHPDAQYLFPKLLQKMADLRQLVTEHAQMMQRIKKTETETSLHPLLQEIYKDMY

[2] = target: T2, Peroxisome proliferator-activated receptor alpha (Homo sapiens, UniProt Q07869)
T2 sequence (Q07869 whole entry): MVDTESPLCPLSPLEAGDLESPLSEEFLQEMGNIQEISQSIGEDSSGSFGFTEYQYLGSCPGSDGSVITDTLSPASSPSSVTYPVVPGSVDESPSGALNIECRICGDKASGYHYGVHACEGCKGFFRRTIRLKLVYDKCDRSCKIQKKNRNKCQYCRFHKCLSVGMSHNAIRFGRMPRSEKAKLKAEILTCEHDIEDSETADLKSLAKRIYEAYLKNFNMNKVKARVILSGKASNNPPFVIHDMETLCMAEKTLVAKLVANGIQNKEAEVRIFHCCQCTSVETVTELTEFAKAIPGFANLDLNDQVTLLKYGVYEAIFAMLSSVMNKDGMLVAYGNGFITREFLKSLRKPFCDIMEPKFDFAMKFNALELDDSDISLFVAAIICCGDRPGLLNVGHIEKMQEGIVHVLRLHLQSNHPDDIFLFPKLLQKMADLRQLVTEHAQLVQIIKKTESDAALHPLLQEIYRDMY

[3] = target: T2, Peroxisome proliferator-activated receptor alpha; remark: listed apart in the source
[4] = species on record: Rattus norvegicus; assay: animal or person; format: functional

SMILES	IC50 [1] [nM]	IC50 [2] [nM]	EC50 [3] [nM]	ED50 [4] [mg/kg]
COc1cc(C[C@H](OC)C(=O)O)ccc1OCCCOc1ccc(Oc2ccccc2)cc1	7500	1350	2150	0.12
CO[C@@H](Cc1ccc(OCCCOc2ccc(C(=O)c3ccccc3)cc2)c(Cl)c1)C(=O)O	1510	309	2710	0.29
CO[C@@H](Cc1ccc(C#CCCOc2ccc(Oc3ccccc3)cc2)cc1)C(=O)O	3940	1150	1880	0.08
CO[C@@H](Cc1ccc(C#CCCCOc2ccc(Oc3ccccc3)cc2)cc1)C(=O)O	4120	770	2620	0.07
CO[C@@H](Cc1ccc(OCCCOc2ccc(-c3ccccc3)cc2)cc1)C(=O)O	1390	568	1100	1.5
CCO[C@@H](Cc1ccc(OCCCOc2ccc(Oc3ccccc3)cc2)cc1)C(=O)O	1570	1690	2750	0.015
CO[C@@H](Cc1ccc(OCCCOc2ccc(C(=O)c3ccccc3)cc2)cc1)C(=O)O	2320	470	2870	0.18
CC(C)(Oc1ccc(C(=O)c2ccc(Cl)cc2)cc1)C(=O)O [FENOFIBRIC ACID]		> 10000	> 10000	
CO[C@@H](Cc1ccc(OCCCOc2ccc(Oc3ccccc3)cc2)cc1)C(=O)O [NAVEGLITAZAR]	1920	2710	2820	0.1
